The target of experiment [1] is Human GPR35 (Homo sapiens, UniProt Q9HC97, S294R). Description: Alternative Beta-Arrestin Assay (JumpIn 294R Tango U2OS cells, LiveBLAzer-FRET B/G). It is filed as cell-based. The following applies: for pEC50: Human GPR35 expressing JumpIn 294R Tango U2OS cells, 5 hours treatment. An outline of the steps: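 U2OS Tango cells expressing human GPR35 S294R, plated overnight, exposed to serially diluted compounds for 5 hours. β-lactamase reporter read with LiveBLAzer-FRET B/G (CCF4-AM) after 2 h; EC50 from four-parameter fit, zaprinast as positive control.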
Human GPR35 (Homo sapiens, UniProt Q9HC97, S294R), sequence (Q9HC97 whole entry S294R): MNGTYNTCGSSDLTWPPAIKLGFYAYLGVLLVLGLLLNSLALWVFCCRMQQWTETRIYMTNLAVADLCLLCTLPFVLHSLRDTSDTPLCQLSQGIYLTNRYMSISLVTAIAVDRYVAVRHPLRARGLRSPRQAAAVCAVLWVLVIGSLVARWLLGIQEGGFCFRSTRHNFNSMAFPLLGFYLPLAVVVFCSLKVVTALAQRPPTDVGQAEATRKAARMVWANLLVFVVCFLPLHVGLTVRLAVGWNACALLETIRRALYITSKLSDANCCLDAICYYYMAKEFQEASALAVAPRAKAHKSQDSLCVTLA

Experiment [2] deals with Human GPR35 (Homo sapiens, UniProt Q9HC97). The experiment can be described thus: Beta-Arrestin Assay (Tango U2OS cells, LiveBLAzer-FRET B/G). It is filed as cell-based. As to conditions: Human GPR35 expressing Tango U2OS cells, 5 hours treatment. An outline of the steps:
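Tango U2OS cells expressing GPR35 were plated at 10,000 cells/well overnight, then treated with serially diluted compounds for 5 h. Beta-arrestin recruitment was read by LiveBLAzer-FRET B/G after a 2 h substrate incubation, with zaprinast as positive control. EC50 came from a four-parameter dose-response fit.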

pEC50: −log10 of the molar value. Where only a bound is given, the exact number is not on record here.

Human GPR35 (Homo sapiens, UniProt Q9HC97), sequence (Q9HC97 whole entry): as the sequence (Q9HC97 whole entry S294R) above, with R294S counted along it

Regarding `CCOc1cc(N2CCC[C@@H]2C(=O)O)ccc1-c1nc2[nH]nnc2c(=O)[nH]1` [Compound 163, (3-ethoxy-4-(7-oxo-6,7-dihydro-3H-[1,2,3]triazolo[4,5-d]pyrimidin-5-yl)phenyl)-D-proline], the pEC50 on Human GPR35 [1] and on Human GPR35 [2] was at least 5.00 throughout.
Consider `CCOc1cc(NCCCC(=O)O)ccc1-c1nc2[nH]nnc2c(=O)[nH]1` [Compound 164, 4-((3-ethoxy-4-(7-oxo-6,7-dihydro-3H-[1,2,3]triazolo[4,5-d]pyrimidin-5-yl)phenyl)amino)butanoic acid], for which the negative logarithm of the EC50 (pEC50) at Human GPR35 [1] and at Human GPR35 [2] was at least 5.00 throughout.
In the case of `CCOc1cc(N2CCCC2=O)ccc1-c1nc2[nH]nnc2c(=O)[nH]1` [Compound 165, 5-(2-ethoxy-4-(2-oxopyrrolidin-1-yl)phenyl)-3,6-dihydro-7H-[1,2,3]triazolo[4,5-d]pyrimidin-7-one], at Human GPR35 [1] (at 50 μM, Table 2), the “% inhibition at 50 μM” value came to 66% inhibition at. Also, on Human GPR35 [2], the pEC50 is at least 5.00.
For `CCOc1cc(N2CC[C@H](C(=O)O)C2)ccc1-c1nc2[nH]nnc2c(=O)[nH]1` [Compound 166, (S)-1-(3-ethoxy-4-(7-oxo-6,7-dihydro-3H-[1,2,3]triazolo[4,5-d]pyrimidin-5-yl)phenyl)pyrrolidine-3-carboxylic acid], the pEC50 on Human GPR35 [1] and on Human GPR35 [2] was at least 5.00 each time.
Take `CCOc1cc(N2CC[C@@H](C(=O)O)C2)ccc1-c1nc2[nH]nnc2c(=O)[nH]1` [Compound 167, (R)-1-(3-ethoxy-4-(7-oxo-6,7-dihydro-3H-[1,2,3]triazolo[4,5-d]pyrimidin-5-yl)phenyl)pyrrolidine-3-carboxylic acid]: the pEC50 at Human GPR35 [1] and at Human GPR35 [2] was at least 5.00 in each case.
As for `CCOc1cc(NCCC(=O)O)ccc1-c1nc2[nH]nnc2c(=O)[nH]1` [Compound 168, 3-((3-ethoxy-4-(7-oxo-6,7-dihydro-3H-[1,2,3]triazolo[4,5-d]pyrimidin-5-yl)phenyl)amino)propanoic acid], the negative logarithm of the EC50 (pEC50) at Human GPR35 [1] and at Human GPR35 [2] was at least 5.00 throughout.
As to `CCOc1cc(C(=O)N[C@H](CCC(=O)O)C(=O)O)ccc1-c1nc2[nH]nnc2c(=O)[nH]1` [Compound 169, (3-ethoxy-4-(7-oxo-6,7-dihydro-3H-[1,2,3]triazolo[4,5-d]pyrimidin-5-yl)benzoyl)-D-glutamic acid], the pEC50 at Human GPR35 [1] and at Human GPR35 [2] was at least 5.00 each time.
For `CCOc1cc(NCC(=O)O)ccc1-c1nc2[nH]nnc2c(=O)[nH]1` [Compound 170, (3-ethoxy-4-(7-oxo-6,7-dihydro-3H-[1,2,3]triazolo[4,5-d]pyrimidin-5-yl)phenyl)glycine], the negative-log EC50 (pEC50) on Human GPR35 [1] and at Human GPR35 [2] was at least 5.00 throughout.
As to `CCOc1cc(C(=O)N2CCCCC2C(=O)O)ccc1-c1nc2[nH]nnc2c(=O)[nH]1` (stereo not drawn) [Compound 171, 1-(3-ethoxy-4-(7-oxo-6,7-dihydro-3H-[1,2,3]triazolo[4,5-d]pyrimidin-5-yl)benzoyl)piperidine-2-carboxylic acid], the pEC50 is 4.30 to 5.00 on Human GPR35 [1] and below 5.00 on Human GPR35 [2].
For `CCOc1cc(C(=O)N2CCCC(C(=O)O)C2)ccc1-c1nc2[nH]nnc2c(=O)[nH]1` (stereo not drawn) [Compound 172, 1-(3-ethoxy-4-(7-oxo-6,7-dihydro-3H-[1,2,3]triazolo[4,5-d]pyrimidin-5-yl)benzoyl)piperidine-3-carboxylic acid], the negative-log EC50 (pEC50) on Human GPR35 [1] is 4.30 to 5.00; on Human GPR35 [2] it was at least 5.00.
For `CCOc1cc(N2CCCC(C(=O)O)C2)ccc1-c1nc2[nH]nnc2c(=O)[nH]1` (stereo not drawn) [Compound 173, 1-(3-ethoxy-4-(7-oxo-6,7-dihydro-3H-[1,2,3]triazolo[4,5-d]pyrimidin-5-yl)phenyl)piperidine-3-carboxylic acid] the same measures were at least 5.00 and at least 5.00.
For `CCOc1cc(Cc2ccccc2)ccc1-c1nc2[nH]nnc2c(=O)[nH]1` [Compound 174, 5-(4-benzyl-2-ethoxyphenyl)-3,6-dihydro-7H-[1,2,3]triazolo[4,5-d]pyrimidin-7-one], the pEC50 on Human GPR35 [1] and on Human GPR35 [2] was at least 5.00 throughout.
Take `CCOc1cc(Cc2ccccc2C(=O)O)ccc1-c1nc2[nH]nnc2c(=O)[nH]1` [Compound 175, 2-(3-ethoxy-4-(7-oxo-6,7-dihydro-3H-[1,2,3]triazolo[4,5-d]pyrimidin-5-yl)benzyl)benzoic acid]: the negative-log EC50 (pEC50) at Human GPR35 [1] and on Human GPR35 [2] was at least 5.00 in each case.
With `CCOc1cc(Cc2cccc(C(=O)O)c2)ccc1-c1nc2[nH]nnc2c(=O)[nH]1` [Compound 176, 3-(3-ethoxy-4-(7-oxo-6,7-dihydro-3H-[1,2,3]triazolo[4,5-d]pyrimidin-5-yl)benzyl)benzoic acid], the pEC50 on Human GPR35 [1] and at Human GPR35 [2] was at least 5.00 each time.
With `CCOc1cc(Cc2ccc(C(=O)O)cc2)ccc1-c1nc2[nH]nnc2c(=O)[nH]1` [Compound 177, 4-(3-ethoxy-4-(7-oxo-6,7-dihydro-3H-[1,2,3]triazolo[4,5-d]pyrimidin-5-yl)benzyl)benzoic acid], the pEC50 at Human GPR35 [1] and at Human GPR35 [2] was at least 5.00 in each case.
Consider `CCOc1cc(-c2c[nH]c(C(=O)O)c2)ccc1-c1nc2[nH]nnc2c(=O)[nH]1` [Compound 178, 4-(3-ethoxy-4-(7-oxo-6,7-dihydro-3H-[1,2,3]triazolo[4,5-d]pyrimidin-5-yl)phenyl)-1H-pyrrole-2-carboxylic acid], for which the pEC50 at Human GPR35 [1] and at Human GPR35 [2] was at least 5.00 each time.
As to `CCOc1cc(-c2ccc(O)c(C(=O)O)c2)ccc1-c1nc2[nH]nnc2c(=O)[nH]1` [Compound 179, 3′-ethoxy-4-hydroxy-4′-(7-oxo-6,7-dihydro-3H-[1,2,3]triazolo[4,5-d]pyrimidin-5-yl)-[1,1′-biphenyl]-3-carboxylic acid], the negative-log EC50 (pEC50) at Human GPR35 [1] and on Human GPR35 [2] was at least 5.00 each time.
As for `CCOc1cc(-c2ccc(Cl)c(C(=O)O)c2)ccc1-c1nc2[nH]nnc2c(=O)[nH]1` [Compound 180, 4-chloro-3′-ethoxy-4′-(7-oxo-6,7-dihydro-3H-[1,2,3]triazolo[4,5-d]pyrimidin-5-yl)-[1,1′-biphenyl]-3-carboxylic acid], the negative-log EC50 (pEC50) on Human GPR35 [1] and on Human GPR35 [2] was at least 5.00 each time.
For the compound `CCOc1cc(-c2ccc(N)c(C(=O)O)c2)ccc1-c1nc2[nH]nnc2c(=O)[nH]1` [Compound 181, 4-amino-3′-ethoxy-4′-(7-oxo-6,7-dihydro-3H-[1,2,3]triazolo[4,5-d]pyrimidin-5-yl)-[1,1′-biphenyl]-3-carboxylic acid], the negative-log EC50 (pEC50) at Human GPR35 [1] and at Human GPR35 [2] was at least 5.00 in each case.
`CCOc1cc(-c2ccc(OC)c(C(=O)O)c2)ccc1-c1nc2[nH]nnc2c(=O)[nH]1` [Compound 182, 3′-ethoxy-4-methoxy-4′-(7-oxo-6,7-dihydro-3H-[1,2,3]triazolo[4,5-d]pyrimidin-5-yl)-[1,1′-biphenyl]-3-carboxylic acid]: the negative-log EC50 (pEC50) on Human GPR35 [1] and at Human GPR35 [2] was at least 5.00 throughout.
Regarding `CCOc1cc(-c2ccc(F)c(C(=O)O)c2)ccc1-c1nc2[nH]nnc2c(=O)[nH]1` [Compound 183, 3′-ethoxy-4-fluoro-4′-(7-oxo-6,7-dihydro-3H-[1,2,3]triazolo[4,5-d]pyrimidin-5-yl)-[1,1′-biphenyl]-3-carboxylic acid], the pEC50 on Human GPR35 [1] and on Human GPR35 [2] was at least 5.00 throughout.

What is called pEC50 is the negative decadic logarithm of the EC50, by convention in mol/L.

Values taken from patent publication US11053251B2, “GPR35 modulators” (Prometheus Biosciences, Inc., priority 2019, dated 2021).
